Columns and labels:
[1] = system: Synechocystis sp. PCC 6803; experiment: Growth in calcium-enhanced media up to about one hundred times BG-11 calcium; assay type: cell-based; conditions: calcium up to about one hundred times standard BG-11 (up to ~25 mM)
Method: For large-scale production of fatty acids, calcium (and/or magnesium) supplementation would allow for fatty acids to accumulate during a production phase to be harvested one or more times in a non-continuous mode. Calcium concentrations up to about one hundred times the concentration of calcium in standard BG-11 medium (that is, up to ˜25 mM) have been tested on Synechocystis sp.

[2] = system: Synechocystis sp. PCC 6803; experiment: Tolerance to free fatty acids in media with increased calcium and magnesium; assay type: cell-based; conditions: for effect on free fatty acid tolerance: added to 2X and 4X of standard BG-11
Method: (§1) The Synechocystis sp. PCC 6803 strain and the SGI-004 Synechococcus strain were both tested to see if calcium and/or magnesium could alleviate the toxic effects of free fatty acid in the media. BG-11 media was used to culture the cells in multiwall plates. Calcium (CaCl2) and magnesium (MgCl2) were added alone and in combination to achieve a concentration two-fold (2×) and four-fold (4×) that of standard BG-11 media. […] PCC 6803. (Table 3). […] At a concentration double that of the BG-11 recipe (approximately 0.5 mM), calcium added a tolerance of up to about 100 mg/L more of free fatty acid for both of the strains.

[3] = system: SGI-004 Synechococcus strain; experiment: as above; assay type: cell-based; conditions: for effect on free fatty acid tolerance / viability: added to 2X and 4X of standard BG-11
Method: as §1

PH-SGI-E-0166 = experiment: Long-term effect of calcium addition on fatty acid-producing strain, three copies Cc1FatB1; assay type: cell-based, Synechocystis sp. PCC 6803; conditions: ~10× calcium concentration; culture without extra calcium completely bleached after ~12 days of IPTG induction
From the text: (§2) FIG. 2 provides data on the growth of genetically modified cyanobacterial strains producing free fatty acids in calcium-supplemented media. FIG. 2a is a graph showing the post-IPTG induction growth of cultures (as measure by OD at 730 nm) of Synechocystis PCC 6803 transformed with one (PH-SGI-E-0159-1; “159”) or three (PH-SGI-E-0166-1; “166”) copies of the Cc1FatB1 Cuphea carthagenensis acyl-ACP thioesterase (diamonds, strain 159 in standard BG-11 media; squares, strain 159 in standard BG-11 media supplemented to 10-fold the amount of calcium of BG-11 (˜2.5 mM); triangles, cyanobacterial strain 166 in standard BG-11 media; circles, strain 166 in standard BG-11 media supplemented to 10-fold the amount of calcium of BG-11 (˜2.5 mM)). FIG. 2b is a graph showing the post-IPTG induction free fatty acid production in mg/L of cultures of Synechocystis strains transformed with one (PH-SGI-E-0159-1; “159”) or three (PH-SGI-E-0166-1; “166”) copies of the Cc1FatB1 Cuphea carthagenensis acyl-ACP thioesterase (diamonds, strain 159 in standard BG-11 media; squares, strain 159 in standard BG-11 media supplemented to 10-fold the amount of calcium of BG-11 (˜2.5 mM); triangles, cyanobacterial strain 166 in standard BG-11 media; circles, strain 166 in standard BG-11 media supplemented to 10-fold the amount of calcium of BG-11 (˜2.5 mM)). […]

PH-SGI-E-0159 = experiment: Long-term effect of calcium addition on fatty acid-producing strain, one copy Cc1FatB1; assay type: cell-based, Synechocystis sp. PCC 6803; conditions: with or without extra calcium addition
From the text: as §2

[4] = calcium at double the BG-11 recipe (approximately 0.5 mM)

[Ca+2].[Cl-].[Cl-] [calcium, calcium chloride]
growth defects in calcium-enhanced media [1]: no growth defects | effect on free fatty acid tolerance [2]: increased free fatty tolerance | added tolerance, more free fatty acid tolerated [2, 4]: up to 100 mg/L | effect on free fatty acid tolerance / viability [3]: increased free fatty acid tolerance | added tolerance, more free fatty acid tolerated [3, 4]: up to 100 mg/L | culture survival (PH-SGI-E-0166): survived | time cultures continued to grow and stayed green (PH-SGI-E-0159): at least 31 days

[Cl-].[Cl-].[Mg+2] [magnesium, MgCl2]
effect on free fatty acid tolerance [2]: increased free fatty tolerance | effect on free fatty acid tolerance / viability [3]: no discernible protective effect

From US9187726B2, “Culturing a microorganism in a medium with an elevated level of a carboxylate counterion source” (ExxonMobil Research and Engineering Company, priority 2010, dated 2015)
